{"source": "patent US20260124221A1", "about": "“INJECTABLE PHARMACEUTICAL COMPOSITION FOR TREATMENT OF BREAST CANCER” (KASHIV BIOSCIENCES, LLC, priority 2021, published 2026)", "key": {"[1]": {"test": "Pharmacokinetics after single intramuscular administration in female SD rats (Example 18)", "type": "in vivo", "details": "Sprague-Dawley, rat, plasma, im, 59 mg/kg, Compound I 100 mg/mL, mean ± SD; for AUC(0-t): read-out: AUClast of Compound I in plasma", "experimental": "The objective of the study was to evaluate single site Vs. two site IM injection of compound I and it impact on pharmacokinetic exposure in female rats. Study was performed in female SD rats with n=6 animals per group. Faslodex 52 mg/kg (human equivalent dose) was administrated at two IM sites by dividing dose volume to half. In similar manner, 59 mg/kg (100 mg/mL compound I concentration) (52 mg/kg Fulvestrant equivalent) was administered as single injection (one IM site) or two IM injection by dividing dose volume in half. […] At each time point, −0.3 mL blood was collected in tubes containing Li-heparin as anti-coagulant. For plasma separation, blood was centrifuges at 5000 rpm for 10 minutes at 4° C. and collected plasma was stored at −80° C. until further analysis.\nBioanalysis in plasma samples was performed using fit-for-purpose LC-MS/MS method for the quantification Fulvestrant and Compound I. Linearity range for Fulvestrant and Compound I analytes were 2 to 2000 ng/mL. The bioanalytical summary for Fulvestrant concentration in all three groups is shown in table 1 and graphical representation is shown in FIG. 1 Concentration of Compound I is shown in table 2 and graphical representation is shown in FIG. 2. The plasma pharmacokinetic parameters for Fulvestrant and Compound I were calculated using standard non-compartmental analysis (Phoenix® software, version 8.1, Pharsight Corporation, Mountain View, California 94040/USA) linear trapezoidal method with linear interpolation."}, "[2]": {"test": "Stability of Compound I in solubilised composition", "type": "physicochemical", "text": "Example 15: Stability of Compound I in Solubilised Composition\nExample 16: Stability of Compound I in Solubilised Composition\nExample 17: Stability of Compound I in Solubilised Composition"}, "[3]": {"test": "Pharmacokinetic study in male cynomolgus monkey (Example 25)", "details": "male cynomolgus monkeys; Compound I 28.3 mg/kg IM, 169.5 mg/mL, one site", "quoted_text": "(§3) Procedure: In this single-dose pharmacokinetics study, four Non-Naïve male Cyno monkeys (Age—2.5-6 years, Weight 2-5 kg) were randomly assigned into two groups to evaluate the pharmacokinetics of Faslodex (1 animal) Vs. Compound I (3 animals) following single intramuscular (IM) administration. The test articles were monitored in plasma for up to 336 h (14 days) following dosing. Faslodex at dose of 25 mg/kg (50 mg/mL fulvestrant strength, 500 mg human equivalent dose) was intramuscularly administrated into monkey at study Day 0. The dosage volume 0.5 mL/kg was equally divided and administered at two sites. Compound I at dose 28.3 mg/kg (25 mg/kg Fulvestrant equivalent) having strength 169.5 mg/mL (150 mg/mL fulvestrant equivalent) was intramuscularly administrated into monkeys at study Day 0. The dosage volume of 0.15 mL/kg was administered on one IM site. Blood samples were collected through cephalic or saphenous vein at 0 (Pre-dose), 0.25, 1, 2, 4, 8, 12, 24, 48, 72, 96, 120, 144, 168, 192, 216, 240, 264, 288, 312, and 336 hours. Plasma concentrations of Compound I and fulvestrant were determined using LC/MS/MS to construct semi-logarithmic plasma concentration-time curves. Pharmacokinetic analysis was performed using non-compartmental model."}, "[4]": {"test": "Pharmacokinetic study in female Beagle dog, 169.5 mg/mL composition (Example 24)", "type": "in vivo", "details": "female Beagle dogs, Compound I 169.5 mg/mL, 17 mg/kg IM, two sites", "experimental": "A total of 2 female beagle dogs were used in this study.\n(§1) All dogs were administered intramuscularly at the gluteal region.\n(§2) Dose volume was equally divided and administered to two IM sites.\nAt each time point, −0.5 mL of blood was withdrawn and transferred into a pre-labeled K2EDTA coated vacutainer tubes and mixed gently by inverting the tube to facilitate mixing of anticoagulant with the blood. Blood samples were kept on gel packs until centrifugation. The collected blood samples were centrifuged at 5000 rpm for 5 min at 4° C. Plasma was separated after centrifugation. All plasma samples were transferred into pre-labeled (Animal ID No., Time point, Study No., and Group) tubes and stored at −70±10° C. until analysis.\nBioanalysis of plasma samples was performed using fit-for-purpose LC-MS/MS method for the quantification of fulvestrant and Compound I.\nLinearity range for Fulvestrant and Compound I analytes were 1 to 1000 ng/mL. The plasmapharmacokinetic parameters for Fulvestrant and Compound I were calculated using standard non-compartmental analysis (Phoenix® software, version 8.3, Pharsight Corporation, Mountain View, California 94040/USA) linear trapezoidal method with linear interpolation."}, "[5]": {"test": "Pharmacokinetics after single intramuscular administration in female Beagle dogs (Example 19)", "type": "in vivo", "details": "17 mg/kg IM, mean ± SD; for Cmax / Tmax / AUC(0-inf) / AUC(0-t): female, beagle, dog, plasma, im, 17 mg/kg; for AUC(0-inf): read-out: AUCinf—obs of Compound I in plasma; for AUC(0-t): read-out: AUClast of Compound I in plasma", "experimental": "A total of 9 female Beagle dogs were used in this study. The study was performed as a parallel design study.\nas §1, §2\nAt each time point, −0.5 mL of blood was withdrawn and transferred into a pre-labelled K2EDTA coated vacutainer tubes and mixed gently by inverting the tube to facilitate mixing of anticoagulant with the blood. Blood samples were kept on gel packs until centrifugation. The collected blood samples were centrifuged at 5000 rpm for 5 min at 4° C. Plasma was separated after centrifugation. All plasma samples were transferred into pre-labeled (Animal ID No., Time point, Study No., and Group) tubes and stored at −70±10° C. until analysis.\nBioanalysis in plasma samples was performed using fit-for-purpose LC-MS/MS method for the quantification of—Group 1—Fulvestrant • Group 2—Fulvestrant and Compound I • Group 3—Fulvestrant and Compound I\nLinearity range for Fulvestrant and Compound I analytes were 1 to 1000 ng/mL. The bioanalytical summary for Fulvestrant concentration in all three groups is shown in table 4 and graphical representation is shown in FIG. 3 Concentration of pro-drug Compound I is shown in table 5 and graphical representation is shown in FIG. 4. The plasma pharmacokinetic parameters for Fulvestrant and Compound I were calculated using standard non-compartmental analysis (Phoenix® software, version 8.3, Pharsight Corporation, Mountain View, California 94040/USA) linear trapezoidal method with linear interpolation. Ratio of fulvestrant obtained after dosing Compound I to that of Faslodex was calculated for parameters Cmax and AUC is reported in Table 6(A) and Table 6(B)."}, "in vivo": {"test": "in vivo", "details": "male, cynomolgus monkey, im, 28.3 mg/kg", "quoted_text": "as §3"}, "[6]": {"details": "composition with 113 mg/ml compound I, Initial"}, "[7]": {"details": "composition with 113 mg/ml compound I, Room Temp (45 Days)"}, "[8]": {"details": "composition with 169.5 mg/ml compound I, Initial"}, "[9]": {"details": "composition with 169.5 mg/ml compound I, Room Temp (30 Days)"}, "[10]": {"details": "composition with 226 mg/ml compound I, Initial"}, "[11]": {"details": "composition with 226 mg/ml compound I, Room Temp (30 Days)"}}}
{"compound": "C[C@]12CC[C@@H]3c4ccc(OP(=O)(O)O)cc4C[C@@H](CCC[S+]([O-])CCCC(F)(F)C(F)(F)F)[C@H]3[C@@H]1CC[C@@H]2O", "note": "(stereo partly shown) [Compound I]", "values": [{"measurement": "Cmax", "setting": "[1]; IM single site", "value": "969 ± 349", "unit": "ng/mL"}, {"measurement": "Tmax", "setting": "[1]; IM single site", "value": "3.17 ± 2.56", "unit": "h"}, {"measurement": "AUC(0-t)", "setting": "[1]; IM single site", "value": "12400 ± 3430", "unit": "ng·h/mL"}, {"measurement": "Cmax", "setting": "[1]; IM two sites", "value": "1150 ± 500", "unit": "ng/mL"}, {"measurement": "Tmax", "setting": "[1]; IM two sites", "value": "1.83 ± 0.41", "unit": "h"}, {"measurement": "AUC(0-t)", "setting": "[1]; IM two sites", "value": "12800 ± 3120", "unit": "ng·h/mL"}, {"measurement": "Description", "setting": "[2]; composition with 113 mg/ml compound I (equivalent to 100 mg/ml Fulvestrant), Initial", "value": "Clear colorless to light"}, {"measurement": "Assay of compound I(%)", "setting": "[2]; [6]", "value": 104.0, "unit": "%"}, {"measurement": "Visual Inspection", "setting": "[2]; [6]", "value": "Clear solution, No"}, {"measurement": "Assay of compound I(%)", "setting": "[2]; [7]", "value": 103.3, "unit": "%"}, {"measurement": "Description", "setting": "[2]; [7]", "value": "Clear colorless to light"}, {"measurement": "Visual Inspection", "setting": "[2]; [7]", "value": "Clear solution, No"}, {"measurement": "Description", "setting": "[2]; composition with 169.5 mg/ml compound I (equivalent to 150 mg/ml Fulvestrant), Initial", "value": "Clear colorless to light"}, {"measurement": "Assay of compound I(%)", "setting": "[2]; [8]", "value": 100.4, "unit": "%"}, {"measurement": "Visual Inspection", "setting": "[2]; [8]", "value": "Clear solution, No"}, {"measurement": "Assay of compound I(%)", "setting": "[2]; [9]", "value": 95.30, "unit": "%"}, {"measurement": "Description", "setting": "[2]; [9]", "value": "Clear colorless to light"}, {"measurement": "Visual Inspection", "setting": "[2]; [9]", "value": "Clear solution, No"}, {"measurement": "Assay of compound I(%)", "setting": "[2]; [10]", "value": 101.8, "unit": "%"}, {"measurement": "Visual Inspection", "setting": "[2]; [10]", "value": "Clear solution, No"}, {"measurement": "Assay of compound I(%)", "setting": "[2]; [11]", "value": 98, "unit": "%"}, {"measurement": "Description", "setting": "[2]; [11]", "value": "Clear colorless to light"}, {"measurement": "Visual Inspection", "setting": "[2]; [11]", "value": "Clear solution, No"}, {"measurement": "C_max (Compound I in plasma)", "setting": "[3]", "value": 1081, "unit": "ng/mL"}, {"measurement": "T_max (Compound I in plasma)", "setting": "[3]", "value": 3.42, "unit": "h"}, {"measurement": "T_½ (Compound I in plasma)", "setting": "[3]", "value": 12.79, "unit": "h"}, {"measurement": "Tlast (Compound I in plasma)", "setting": "[3]", "value": 152.00, "unit": "h"}, {"measurement": "Tmax", "setting": "[4]; dog, plasma", "value": 8, "unit": "h"}, {"measurement": "Cmax", "setting": "[4]; dog, plasma, mean ± SD", "value": "322 ± 14.1", "unit": "ng/mL"}, {"measurement": "AUC(0-inf)", "setting": "[4]; dog, plasma, mean ± SD, read-out: AUCinf—obs of Compound I in plasma", "value": "5540 ± 1880", "unit": "ng·h/mL"}, {"measurement": "AUC(0-t)", "setting": "[4]; dog, plasma, mean ± SD, read-out: AUClast of Compound I in plasma", "value": "5510 ± 1880", "unit": "ng·h/mL"}, {"measurement": "AUC% exp. pol of Compound I", "setting": "[4]; mean ± SD", "value": "0.578 ± 0.303", "unit": "%"}, {"measurement": "AUC% exp. pol of Compound I", "setting": "[5]; Compound I 50 mg/mL", "value": "0.967 ± 0.255", "unit": "%"}, {"measurement": "AUC% exp. pol of Compound I", "setting": "[5]; Compound I 100 mg/mL", "value": "0.974 ± 0.886", "unit": "%"}, {"measurement": "Cmax", "setting": "[5]; Compound I 50 mg/mL", "value": "624 ± 274", "unit": "ng/mL"}, {"measurement": "Tmax", "setting": "[5]; Compound I 50 mg/mL", "value": "0.83 ± 1.01", "unit": "h"}, {"measurement": "AUC(0-inf)", "setting": "[5]; Compound I 50 mg/mL", "value": "4260 ± 1060", "unit": "ng·h/mL"}, {"measurement": "AUC(0-t)", "setting": "[5]; Compound I 50 mg/mL", "value": "4220 ± 1060", "unit": "ng·h/mL"}, {"measurement": "Cmax", "setting": "[5]; Compound I 100 mg/mL", "value": "272 ± 183", "unit": "ng/mL"}, {"measurement": "Tmax", "setting": "[5]; Compound I 100 mg/mL", "value": "1.83 ± 1.89", "unit": "h"}, {"measurement": "AUC(0-inf)", "setting": "[5]; Compound I 100 mg/mL", "value": "4360 ± 1390", "unit": "ng·h/mL"}, {"measurement": "AUC(0-t)", "setting": "[5]; Compound I 100 mg/mL", "value": "4320 ± 1410", "unit": "ng·h/mL"}, {"measurement": "AUC(0-t)", "setting": "in vivo", "value": 17500, "unit": "ng·h/mL"}]}
